Source: US11040028B2, “Penicinotam derivative, preparation method and use thereof” (OCEAN UNIVERSITY OF CHINA, priority 2017, dated 2021)

Assays:
Type in all cases: cell-based
[1] = system: mouse macrophages (RAW264.7); experiment: Lipopolysaccharide-induced NO secretion in macrophages (Griess); conditions: Mus musculus, RAW264.7, 24 h, RAW264.7, LPS 1 μg/ml, a/b isomers given as first/second symbol, read-out: IC50 (μM), inhibition of lipopolysaccharide-induced NO secretion in macrophages
Procedure, shortened: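 RAW264.7 macrophages in DMEM with 10% FBS received test samples at several concentrations and were stimulated with 1 μg/ml LPS for 24 h. NO in the supernatant was measured with the Griess reagent at 548 nm, […].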

[2] = system: human embryonic lung fibroblast IMR-90; experiment: Anti-fibrosis activity test: inhibition of proliferation of human embryonic lung fibroblast IMR-90 (CCK-8)
Procedure, shortened: (§1)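 48 h compound treatment of fibroblast-type cells seeded at 2×10^4 cells/mL, 37° C, 5% CO2; viability by CCK-8 (2 h, A450). Inhibition rate calculated against blank control, IC50 by curve fitting; pirfenidone served as reference.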

[3] = system: cardiac fibroblast RAT-iCell-C002; experiment: Anti-fibrosis activity test: inhibition of proliferation of cardiac fibroblast RAT-iCell-C002 (CCK-8); conditions: Cardiac fibroblast, 48 h
Procedure, shortened: as §1

[4] = system: human lung fibroblasts HFL1; experiment: Anti-fibrosis activity test: inhibition of proliferation of human lung fibroblasts HFL1 (CCK-8); conditions: Homo sapiens, HFL1, 48 h
Procedure, shortened: as §1

[5] = system: BHK-21 cells; experiment: Anti-fibrosis activity test: inhibition of BHK-21 cell proliferation (CCK-8); conditions: Mesocricetus auratus, BHK-21, 48 h
Procedure, shortened: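 Proliferation of BHK-21 cells is measured by CCK-8 at 450 nm following 48 h compound exposure at several concentrations. Inhibition is expressed relative to blank control and IC50 is computed from it.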

[6] = system: human dermal fibroblasts CCC-ESF-1; experiment: Anti-fibrosis activity test: inhibition of proliferation of human dermal fibroblasts CCC-ESF-1 (CCK-8); conditions: Fibroblast
Procedure, shortened: as §1

[7] = system: human hepatic stellate cells LX-2; experiment: Anti-fibrosis activity test: inhibition of proliferation of human hepatic stellate cells LX-2 (CCK-8); conditions: Homo sapiens, 48 h
Procedure, shortened: as §1

[8] = system: human fibrosarcoma cells HT-1080; experiment: Anti-fibrosis activity test: inhibition of proliferation of human fibrosarcoma cells HT-1080 (CCK-8); conditions: Homo sapiens, HT-1080, 48 h
Procedure, shortened: as §1

[9] = human embryonic lung fibroblast IMR-90, CCK-8, 48 hours
[10] = cardiac fibroblast RAT-iCell-C002, CCK-8, 48 hours
[11] = human lung fibroblasts HFL1, CCK-8, 48 hours
[12] = CCK-8, 48 hours after administration
[13] = human dermal fibroblasts CCC-ESF-1, CCK-8, 48 hours
[14] = human hepatic stellate cells LX-2, CCK-8, 48 hours
[15] = human fibrosarcoma cells HT-1080, CCK-8, 48 hours
[16] = Homo sapiens, IMR-90 cells, 48 h, CCK-8
[17] = Homo sapiens, CCC-ESF-1 cells, 48 h, CCK-8

| SMILES | IC50 [1] | IC50 [2, 9] | IC50 [3, 10] | IC50 [4, 11] | IC50 [5, 12] | IC50 [6, 13] | IC50 [7, 14] | IC50 [8, 15] | IC50 [2, 16] | IC50 ([3]; RAT-iCell-C002 cells, CCK-8) | IC50 ([4]; HFL1 cells, 48 h, CCK-8) | IC50 ([5]; 48 h, CCK-8) | IC50 [6, 17] | IC50 ([7]; LX-2, 48 h, LX-2 cells, CCK-8) | IC50 ([8]; HT-1080 cells, 48 h, CCK-8) |
| --- | --- | --- | --- | --- | --- | --- | --- | --- | --- | --- | --- | --- | --- | --- | --- |
| O=C1c2c(nc3cccc(C(F)(F)F)c3c2OCc2ccc(Cl)cc2)-c2cccn21 [Compound 465b, 9-((4-chlorobenzyl)oxy)-8-(trifluoromethyl)-10H-pyrrolizino[1,2-b]quinolin-10-one] | 10 to 50 µM | 0.05 to 5 mM | 0.05 to 5 mM | 0.05 to 5 mM | 0.05 to 5 mM | 0.05 to 5 mM | 0.05 to 5 mM | 0.05 to 5 mM |  |  |  |  |  |  |  |
| O=C1c2c(nc3ccc(F)cc3c2OCCO)-c2cccn21 [Compound 114b, 7-fluoro-9-(2-hydroxyethoxy)-10H-pyrrolizino[1,2-b]quinolin-10-one] | 1 to 10 µM | 0.05 to 5 mM | 0.05 to 5 mM | 0.05 to 5 mM | 0.05 to 5 mM | 0.05 to 5 mM | 0.05 to 5 mM | 0.05 to 5 mM |  |  |  |  |  |  |  |
| Cc1cc2nc3c(c(O)c2cc1C)-c1cccn1C3=O [Compound 781b, 11-hydroxy-8,9-dimethyl-5H-pyrrolizino[2,1-b]quinolin-5-one] | 1 to 10 µM |  |  |  |  |  |  |  | 0.05 to 5 mM | 0.05 to 5 mM | 0.05 to 5 mM | 0.05 to 5 mM | 0.05 to 5 mM | 0.05 to 5 mM | 0.05 to 5 mM |
| O=C1c2c(nc3c(Cl)cccc3c2OCc2cccc(Cl)c2)-c2cccn21 [Compound 459b, 5-chloro-9-((3-chlorobenzyl)oxy)-10H-pyrrolizino[1,2-b]quinolin-10-one] | 1 to 10 µM | 0.05 to 5 mM | 0.05 to 5 mM | 0.05 to 5 mM | 0.05 to 5 mM | 0.05 to 5 mM | 0.05 to 5 mM | 5 to 20 mM |  |  |  |  |  |  |  |
| O=C1c2c(nc3c(Cl)cccc3c2OCc2ccc(F)cc2)-c2cccn21 [Compound 481b, 5-chloro-9-((4-fluorobenzyl)oxy)-10H-pyrrolizino[1,2-b]quinolin-10-one] | 1 to 10 µM | 0.05 to 5 mM | 0.05 to 5 mM | 0.05 to 5 mM | 0.05 to 5 mM | 0.05 to 5 mM | 0.05 to 5 mM | 0.05 to 5 mM |  |  |  |  |  |  |  |
| O=C1c2c(nc3cccc(C(F)(F)F)c3c2OCc2cccc(Cl)c2)-c2cccn21 [Compound 466b, 9-((3-chlorobenzyl)oxy)-8-(trifluoromethyl)-10H-pyrrolizino[1,2-b]quinolin-10-one] | 1 to 10 µM | 0.05 to 5 mM | 0.05 to 5 mM | 0.05 to 5 mM | 0.05 to 5 mM | 0.05 to 5 mM | 0.05 to 5 mM | 0.05 to 5 mM |  |  |  |  |  |  |  |
| O=C1c2c(nc3cc(N4CCNCC4)c(OC(F)(F)F)cc3c2O)-c2cccn21 [Compound 409b, 9-hydroxy-6-(piperazin-1-yl)-7-(trifluoromethoxy)-10H-pyrrolizino[1,2-b]quinolin-10-one] | 1 to 10 µM | 0.05 to 5 mM | 0.05 to 5 mM | 0.05 to 5 mM | 0.05 to 5 mM | 0.05 to 5 mM | 0.05 to 5 mM | 0.05 to 5 mM |  |  |  |  |  |  |  |
| O=C1c2c(nc3c(F)cccc3c2OCc2ccc(Cl)cc2)-c2cccn21 [Compound 453b, 9-((4-chlorobenzyl)oxy)-5-fluoro-10H-pyrrolizino[1,2-b]quinolin-10-one] | 10 to 50 µM | 0.05 to 5 mM | 0.05 to 5 mM | 0.05 to 5 mM | 0.05 to 5 mM | 0.05 to 5 mM | 0.05 to 5 mM | 0.05 to 5 mM |  |  |  |  |  |  |  |
| O=C1c2c(nc3cccc(C(F)(F)F)c3c2OCc2ccccc2Cl)-c2cccn21 [Compound 472b, 9-((2-chlorobenzyl)oxy)-8-(trifluoromethyl)-10H-pyrrolizino[1,2-b]quinolin-10-one] | 1 to 10 µM | 0.05 to 5 mM | 0.05 to 5 mM | 0.05 to 5 mM | 0.05 to 5 mM | 0.05 to 5 mM | 0.05 to 5 mM | 0.05 to 5 mM |  |  |  |  |  |  |  |
| O=C1c2c(c(=O)c3ccccc3n2CCN2CCCCC2)-c2cccn21 [Compound 784a, 6-(2-(Piperidin-1-yl)ethyl)-5H-pyrrolizino[2,1-b]quinoline-5,11(6H)-dione] | 10 to 50 µM |  |  |  |  |  |  |  | 0.05 to 5 mM | 0.05 to 5 mM | 0.05 to 5 mM | < 0.05 mM | 0.05 to 5 mM | 0.05 to 5 mM | 0.05 to 5 mM |
| O=C1c2c([nH]c3cc(N4CCNCC4)c(OC(F)(F)F)cc3c2=O)-c2cccn21 [Compound 409a, 6-(Piperazin-1-yl)-7-(trifluoromethoxy)-9H-pyrrolizino[1,2-b]quinoline-9,10(4H)-dione] | 1 to 10 µM | 0.05 to 5 mM | 0.05 to 5 mM | 0.05 to 5 mM | 0.05 to 5 mM | 0.05 to 5 mM | 0.05 to 5 mM | 0.05 to 5 mM |  |  |  |  |  |  |  |
| O=C1c2c(nc3cc(F)ccc3c2OCc2ccc(F)cc2)-c2cccn21 [Compound 490b, 6-fluoro-9-((4-fluorobenzyl)oxy)-10H-pyrrolizino[1,2-b]quinolin-10-one] | 1 to 10 µM | 0.05 to 5 mM | 0.05 to 5 mM | 0.05 to 5 mM | 0.05 to 5 mM | 0.05 to 5 mM | 0.05 to 5 mM | 0.05 to 5 mM |  |  |  |  |  |  |  |
| CC(C)n1c2c(c(=O)c3cc(F)c(N4CCNCC4)cc31)C(=O)n1cccc1-2 [Compound 331a, 7-Fluoro-4-isopropyl-6-(piperazin-1-yl)-9H-pyrrolizino[1,2-b]quinoline-9,10(4H)-dione] | 1 to 10 µM | 0.05 to 5 mM | 0.05 to 5 mM | 0.05 to 5 mM | 0.05 to 5 mM | 0.05 to 5 mM | 0.05 to 5 mM | 0.05 to 5 mM |  |  |  |  |  |  |  |
| O=C1c2c(n(Cc3ccccc3Cl)c3c(C(F)(F)F)cccc3c2=O)-c2cccn21 [Compound 457a, 4-(2-Chlorobenzyl)-5-(trifluoromethyl)-9H-pyrrolizino[1,2-b]quinoline-9,10(4H)-dione] | 1 to 10 µM | 0.05 to 5 mM | 0.05 to 5 mM | 0.05 to 5 mM | 0.05 to 5 mM | 0.05 to 5 mM | < 0.05 mM | 0.05 to 5 mM |  |  |  |  |  |  |  |
| O=C1c2c([nH]c3cc(N4CCNCC4)c(Cl)cc3c2=O)-c2cccn21 [Compound 373a, 7-Chloro-6-(piperazin-1-yl)-9H-pyrrolizino[1,2-b]quinoline-9,10(4H)-dione] | 0.1 to 1 µM | 0.05 to 5 mM | 0.05 to 5 mM | 0.05 to 5 mM | 0.05 to 5 mM | 0.05 to 5 mM | 0.05 to 5 mM | 0.05 to 5 mM |  |  |  |  |  |  |  |
| N#Cc1ccccc1-c1ccc(COc2c3c(nc4ccccc24)C(=O)n2cccc2-3)cc1 [Compound 795b, 4′-(((5-oxo-5H-pyrrolizino[2,1-b]quinolin-11-yl)oxy)methyl)-[1,1′-biphenyl]-2-carbonitrile] | 1 to 10 µM |  |  |  |  |  |  |  | 0.05 to 5 mM | 0.05 to 5 mM | 0.05 to 5 mM | 0.05 to 5 mM | 0.05 to 5 mM | 0.05 to 5 mM | 0.05 to 5 mM |
| N#Cc1ccc2nc3c(c(Oc4ccc(Cl)cc4)c2c1)C(=O)n1cccc1-3 [Compound 210b, 9-(4-chlorophenoxy)-10-oxo-10H-pyrrolizino[1,2-b]quinoline-7-carbonitrile] | 1 to 10 µM | 0.05 to 5 mM | 0.05 to 5 mM | 0.05 to 5 mM | 0.05 to 5 mM | 0.05 to 5 mM | 0.05 to 5 mM | 0.05 to 5 mM |  |  |  |  |  |  |  |
| Cc1ccc(C)c2c(=O)c3c([nH]c12)C(=O)n1cccc1-3 [Compound 783a, 7,10-Dimethyl-5H-pyrrolizino[2,1-b]quinoline-5,11(6H)-dione] | 1 to 10 µM |  |  |  |  |  |  |  | 0.05 to 5 mM | 0.05 to 5 mM | 0.05 to 5 mM | < 0.05 mM | 0.05 to 5 mM | 0.05 to 5 mM | 0.05 to 5 mM |
| N#Cc1cccc2nc3c(c(OCc4cccc(F)c4)c12)C(=O)n1cccc1-3 [Compound 463b, 9-((3-fluorobenzyl)oxy)-10-oxo-10H-pyrrolizino[1,2-b]quinoline-8-carbonitrile] | 1 to 10 µM | 0.05 to 5 mM | 0.05 to 5 mM | 0.05 to 5 mM | 0.05 to 5 mM | 0.05 to 5 mM | 0.05 to 5 mM | 0.05 to 5 mM |  |  |  |  |  |  |  |
| O=C1c2c(n(Cc3ccc(F)cc3)c3cc(F)ccc3c2=O)-c2cccn21 [Compound 490a, 6-Fluoro-4-(4-fluorobenzyl)-9H-pyrrolizino[1,2-b]quinoline-9,10(4H)-dione] | 10 to 50 µM | 0.05 to 5 mM | < 0.05 mM | 0.05 to 5 mM | 0.05 to 5 mM | 0.05 to 5 mM | 0.05 to 5 mM | 0.05 to 5 mM |  |  |  |  |  |  |  |
